Publication PMC2639639, “Identification of Three Classes of Heteroaromatic Compounds with Activity against Intracellular Trypanosoma cruzi by Chemical Library Screening” (PLoS Neglected Tropical Diseases, 2009)
“Also recorded” adds a separate entry of the source. Read-outs that look alike come from different tables or passages of the source.

Experiments:
[1] = tested on: T. cruzi (Tulahuen strain) expressing β-galactosidase; assay: T. cruzi growth inhibition assay (β-gal activity, infection of NIH/3T3 cells); type: cell-based, Trypanosoma cruzi; conditions: Trypanosoma cruzi, TULAHUEN, NIH3T3, 96 h, 4 days
Description: NIH/3T3 cells and parasites were harvested, washed once and resuspended in DMEM supplemented with 2% FBS and Pen-Strep-Glut. […] Different numbers of NIH/3T3 cells were seeded in 96-well plates. After 3 h, compounds were added at the indicated concentrations and mixed by pipetting. BZN tablets (Rochagan, Roche) dissolved in DMSO and 4 µM Amphotericin B solution (Sigma-Aldrich) were used as positive controls. Different numbers of T. cruzi parasites were added in a final volume of 200 µl/well. After 4 days, 50 µl of PBS containing 0.5% of the detergent NP40 and 100 µM Chlorophenol Red-β-D-galactoside (CPRG) (Fluka) were added. Plates were incubated at 37°C for 4 h and absorbance was read at 590 nm using a Tecan Spectra Mini plate reader.
To calculate the Z′ factor, we used the formula described by Zhang et al.: Z′ = 1−[(3σc++3σc−) / |μc+−μc−|] where σc+ = standard deviation (SD) of positive control, σc− = SD of negative control, μc+ = mean of positive control, μc− = mean of negative control. Subsequently, the best ratio was used for all growth inhibition assays (50.000 cells and parasites, multiplicity of infection (MOI) 1∶1).
To determine IC50 values, β-gal activity (Abs590) was plotted against compound concentration for each compound. The IC50 was determined as the concentration at which the activity (absorbance) was half that in the absence of compound. Mean IC50 values are the average of independent experiments performed in triplicate on three different days.

[2] = tested on: T. cruzi; conditions: cited from earlier work
[3] = tested on: T. cruzi Y strain; assay: Development assay with immunofluorescence (Y strain); type: cell-based, Trypanosoma cruzi; conditions: added after 2 h infection, 2 days
Description: (§1) Fifty thousand NIH/3T3 cells were seeded on sterile glass coverslips in 12-well plates and allowed to adhere overnight. Five million parasites were added (MOI 100∶1) and allowed to infect for 2 h in DMEM+2% FBS and Pen-Strep-Glut. Parasites were rinsed out three times with PBS. Infected cells were further incubated and fixed for 15 min with 4% paraformaldehyde at the times indicated.
(§2) Fixed cells on coverslips were rinsed with PBS, permeabilized for 15 min in PBS with 0.1% Triton X-100 (Sigma-Aldrich). After blocking for 20 min in PBS with 10% goat serum, 1% bovine serum albumin, 100 mM glycine and 0.05% sodium azide, cells were incubated for 1 h at room temperature with a polyclonal rabbit anti-T. cruzi (gift from Dr B. Burleigh, Harvard School of Public Health, Boston, MA) at 1∶2000 dilution. After rinsing, an Alexa Fluor® 488 goat anti-rabbit IgG secondary antibody (Molecular Probes, Invitrogen) was added for 1 h at a 1∶800 dilution. DNA was stained with DAPI and coverslips were mounted on Mowiol. To determine the number of parasites per infected cell, between 200 and 300 infected cells per coverslip were scored in triplicate samples using an inverted Olympus IX70 microscope with a 60× oil objective. Data are presented as mean±standard deviation. Images were taken with the same microscope.

[4] = tested on: NIH/3T3 cells; assay: Cytotoxicity assay (Alamar Blue) on NIH/3T3 cells; type: cell-based; conditions: 4 days
Description: (§3) Cells (NIH/3T3 or HepG2) were washed and plated at a density of 50,000 cells/well of 96-well plates in 200 µl and allowed to adhere for 3 h. Twenty-four hour assays were done in DMEM without phenol red supplemented with 10% FBS and Pen-Strep-Glut, while 4-day assays were done in the same medium containing 2% FBS. Drugs were added and mixed. After 1 or 4 days, 20 µl of Alamar Blue (Biosource, Invitrogen) was added. Plates were incubated for 4 h (HepG2) or 6 h (NIH/3T3) at 37°C and fluorescence was read using a Labsystems Fluoroskan II plate reader (excitation: 544 nm, emission: 590 nm) .
(§4) To determine TC50 values, fluorescence was plotted against inhibitor concentration. TC50 was determined as the concentration at which cytotoxicity (fluorescence) was half that in the absence of inhibitor.

[5] = tested on: L. amazonensis; assay: Leishmania growth inhibition assay in bone marrow-derived macrophages (L. amazonensis); type: cell-based; conditions: 3 days; for Reduction in parasite burden, L. amazonensis: 2 µM, added 2 h post-infection of macrophages; for IC50: Leishmania amazonensis, Macrophage, 72 h, macrophages, read-out: estimated IC50 against intracellular L. amazonensis
Description: (§5) Adherent bone marrow-derived macrophages were harvested in cold DMEM+0.5 mM EDTA and seeded into an 8-well Lab-Tek II chambered coverglass (Nalge Nunc International, Naperville, IL) at a concentration of 50,000 cells/chamber 24 h before being used for infections.
(§6) L. major and L. amazonensis parasites were opsonized for 30 min by incubation in DMEM containing 4% BALB/c serum and then allowed to invade macrophages in 200 µl DMEM supplemented with 10% FBS and Pen-Strep-Glut, at a MOI of 3 parasites per macrophage for 2 h at 33°C (5% CO2, 95% air humidity),[17]. Thereafter, non-phagocytosed parasites were washed off, and the cultures were further incubated in 300 µl of medium in the presence or the absence of drugs at the indicated concentration for 3 days for L. amazonensis and 5 days for L. major. Medium was changed and drugs were added again at the same concentration on day 2 post-infection. Intracellular parasites were assessed after staining with DAPI (3 µM) by fluorescence microscopy. The total number of amastigotes/500 macrophages was counted in each well. Kruskal-Wallis test was used to analyze the data, followed by a Dunn's post-comparison test.

[6] = tested on: Free trypomastigotes (β-gal T. cruzi); assay: T. cruzi lysis assay; type: cell-based; conditions: Trypanosoma cruzi; lysis assay, 100,000 parasites, 24 h
Description: Trypomastigotes were rinsed once and plated in 96-well plates at 100,000/well with the compounds in a final volume of 200 µl of DMEM without phenol red supplemented with 2% FBS, Pen-Strep-Glut and 100 µM CPRG. Plates were incubated for 24 h at 37°C and absorbance was read at 590 nm.

[7] = tested on: L. major; assay: Leishmania growth inhibition assay in bone marrow-derived macrophages (L. major); type: cell-based; conditions: 5 days; for Reduction in parasite burden, L. major: 2 µM, added 2 h post-infection of macrophages; for IC50: Leishmania major, Macrophage, 120 h, macrophages, read-out: estimated IC50 against intracellular L. major
Description: as §5, §6

[8] = tested on: HepG2 cells; assay: Cytotoxicity assay (Alamar Blue) on HepG2 cells; type: cell-based, human
Description: as §3, §4

[9] = tested on: intracellularly growing T. cruzi amastigotes; assay: Development assay with immunofluorescence (intracellular amastigotes, Tulahuen β-gal strain); type: cell-based, Trypanosoma cruzi; conditions: for Number of parasites per infected cell (intracellular replication) / Morphology of intracellularly growing T. cruzi: added after 2 h infection; for Number of parasites per infected cell (intracellular replication): 2 days; for Morphology of intracellularly growing T. cruzi: fixed after 2 or 3 days, PCH1 100 nM, NT1 400 nM, CX1 90 nM
Description: as §1, §2

[10] = tested on: Leishmania; design: method as in PMID 15891135; conditions: read-out: IC50 (Leishmania positive control); cited from earlier work
[11] = tested on: mammalian cells; assay: Cytotoxicity on mammalian cells (cell type not given); type: cell-based; conditions: type of mammalian cells and duration not specified at the place
Description: as §3, §4

[12] = β-gal T. cruzi Tulahuen, 50.000 NIH/3T3 cells and parasites (MOI 1:1), read-out: IC50 Intracellular growth

SMILES	IC50 ([1]; β-gal T. cruzi Tulahuen in NIH/3T3 cells, read-out: IC50 T. cruzi growth inhibition) [nM]	IC50 ([2]; read-out: IC50 against T. cruzi (reported)) [nM]	IC50 ([2]; read-out: IC50 against T. cruzi in vitro) [nM]	Effect on intracellular T. cruzi Y strain [3]	IC50 [1, 12] [nM]	TC50 NIH/3T3 cells at 4 days [4] [nM]	Reduction in parasite burden, L. amazonensis [5] [%]	IC50 [5] [nM]	IC50 [6] [nM]	Reduction in parasite burden, L. major [7]	IC50 [7] [nM]	TC50 HepG2 cells at 24 h [8] [nM]	TC50 HepG2 cells at 4 days [8] [nM]	Phenotype of intracellular T. cruzi, compounds added 2 days after infection [9]	Number of parasites per infected cell (intracellular replication) [9]	Morphology of intracellularly growing T. cruzi [9]	IC50 [10] [nM]	Toxicity (TC50) versus anti-trypanosomal activity (IC50) [11]
O=C(Cn1ccnc1[N+](=O)[O-])NCc1ccccc1 [BZN, benznidazole, reference compound]	1150	1500																
OC(Cn1cncn1)(Cn1cncn1)c1ccc(F)cc1F [Fluconazole, fluconazole]			8000															
O=C(Cn1cnc([N+](=O)[O-])n1)Nc1cc(Oc2cccc(C(F)(F)F)c2)cc([N+](=O)[O-])c1 [NT1, 2-(3-nitro-1H-1,2,4-triazol-1-yl)-N-{3-nitro-5-[3-(trifluoromethyl)phenoxy]phenyl}acetamide]				inhibit intracellular replication of T. cruzi Y strain; also recorded: displayed activity on the Y strain, but at higher concentrations	190 ± 40	14000 ± 6000	50	~500	6800 ± 900	~80%	~500	30000 ± 10000	7600 ± 300	had a trypanostatic effect	induced a growth arrest of intracellular T. cruzi	inhibited replication of parasites without altering their overall morphology		
C[C@@H]1[C@H](O)[C@@H](C)/C=C/C=C/C=C/C=C/C=C/C=C/C=C/[C@H](O[C@@H]2O[C@H](C)[C@@H](O)[C@H](N)[C@@H]2O)C[C@@H]2O[C@](O)(C[C@@H](O)C[C@@H](O)[C@H](O)CC[C@@H](O)C[C@@H](O)CC(=O)O[C@H]1C)C[C@H](O)[C@H]2C(=O)O [Amphotericin B]																	100	
O=C(NN=Cc1ccc(-c2cccc(Cl)c2Cl)o1)c1ccccn1 [PCH1, N′-{[5-(2,3-dichlorophenyl)-2-furyl]methylene}-2-pyridinecarbohydrazide]				inhibit intracellular replication of T. cruzi Y strain	54 ± 10	>300000	70	~100	240000 ± 60000	about 50%	~2000	>300000	66000 ± 7000	induced major defects in cell division at the IC100 and parasite lysis at higher doses	induced a growth arrest of intracellular T. cruzi	larger amastigotes containing multiple disorganized nuclei and kinetoplasts were observed		
Cc1cc(OCCCCCCn2ccnc2)cc(C)c1Cl [CX1, 1-[6-(4-chloro-3,5-dimethylphenoxy)hexyl]-1H-imidazole]				induced parasite lysis with morphological changes; also recorded: dose effect on the Y strain of T. cruzi was similar to the β-gal-expressing Tulahuen strain	23 ± 7	16000 ± 6000	70	~500	13500 ± 1000	~70%	~500	57000 ± 8000	12000 ± 4000	induced parasite lysis and host cell apoptosis in concentrations as low as 90 nM		displayed pycnotic nuclei (star) and debris of parasites protein and DNA throughout the cytoplasm		over 500 fold
